From patent US9951028B2, “Agricultural chemicals” (REDAG CROP PROTECTION LTD, priority 2013, dated 2018)

Assays:
[1] = test system: common chickweed, Stellaria media; assay: Herbicidal efficacy screen, potter tower spray, necrosis assessed; format: in vivo
Method: (§1) Compounds 22, 23 and 24 were screened for herbicidal efficacy against target plants: garden cress, Lepidium sativum, common chickweed, Stellaria media, and white mustard […] alba Plants were obtained as seeds and were grown to the 2-4 true leaf stage. Plants were grown under laboratory conditions, individually in seed trays. Each plant (in an approximately 3 cm diameter plug) was then detached from the tray for spraying. The compounds were screened at a range of five concentrations, diluted in acetone and TweenTM. A carrier only control was also conducted. Treatments were applied directly onto the plants, using a potter tower, at a specified application rate. One plant of each species was sprayed using a potter tower. The 3 different types of plants were placed on a 10 cm diameter platform directly beneath the potter sprayer and sprayed simultaneously. The growth of the plants and any Phytotoxicity effects were then assessed at intervals over 21 days, according to EPPO guideline PP1/135. Five replicas were performed for each treatment, for each species. In the tables below C represents a percentage increase in necrosis relative to the control of 0.1-50; B represents a percentage inhibition of 50-80; and A represents a percentage inhibition of 80-100.

[2] = test system: garden cress, Lepidium sativum; assay: as above; format: in vivo
Method: as §1

[3] = 12.5 g/ha, day 1 post application
[4] = 12.5 g/ha, day 2 post application
[5] = 12.5 g/ha, day 3 post application
[6] = 12.5 g/ha, day 4 post application
[7] = 12.5 g/ha, day 5 post application
[8] = 12.5 g/ha, day 7 post application
[9] = 12.5 g/ha, day 10 post application
[10] = 25 g/ha, day 1 post application
[11] = 25 g/ha, day 2 post application
[12] = 25 g/ha, day 3 post application
[13] = 25 g/ha, day 4 post application
[14] = 25 g/ha, day 5 post application
[15] = 25 g/ha, day 7 post application
[16] = 25 g/ha, day 10 post application
[17] = 50 g/ha, day 1 post application
[18] = 50 g/ha, day 2 post application
[19] = 50 g/ha, day 3 post application
[20] = 50 g/ha, day 4 post application
[21] = 50 g/ha, day 5 post application
[22] = 50 g/ha, day 7 post application
[23] = 50 g/ha, day 10 post application
[24] = 100 g/ha, day 1 post application
[25] = 100 g/ha, day 2 post application
[26] = 100 g/ha, day 3 post application
[27] = 100 g/ha, day 4 post application
[28] = 100 g/ha, day 5 post application
[29] = 100 g/ha, day 7 post application
[30] = 100 g/ha, day 10 post application
[31] = 200 g/ha, day 1 post application
[32] = 200 g/ha, day 2 post application
[33] = 200 g/ha, day 3 post application
[34] = 200 g/ha, day 4 post application

## CC(C)N(C)S(=O)(=O)/N=C/c1cc(-n2c(=O)cc(C(F)(F)F)n(C)c2=O)c(F)cc1Cl [Compound 22, 1-[4-Chloro-2-fluoro-5-[(E)-(isopropyl(methyl)sulfamoyl)iminomethyl]phenyl]-3-methyl-2,6-dioxo-4-(trifluoromethyl)pyrimidine]
[1]; [3]
  Average of necrosis: C (C represents a percentage increase in necrosis relative to the control of 0.1-50)
[1]; [4]
  Average of necrosis: C (C represents a percentage increase in necrosis relative to the control of 0.1-50)
[1]; [5]
  Average of necrosis: C (C represents a percentage increase in necrosis relative to the control of 0.1-50)
[1]; [6]
  Average of necrosis: C (C represents a percentage increase in necrosis relative to the control of 0.1-50)
[1]; [7]
  Average of necrosis: B (B represents a percentage inhibition of 50-80)
[1]; [8]
  Average of necrosis: B (B represents a percentage inhibition of 50-80)
[1]; [9]
  Average of necrosis: B (B represents a percentage inhibition of 50-80)
[1]; [10]
  Average of necrosis: C (C represents a percentage increase in necrosis relative to the control of 0.1-50)
[1]; [11]
  Average of necrosis: C (C represents a percentage increase in necrosis relative to the control of 0.1-50)
[1]; [12]
  Average of necrosis: C (C represents a percentage increase in necrosis relative to the control of 0.1-50)
[1]; [13]
  Average of necrosis: C (C represents a percentage increase in necrosis relative to the control of 0.1-50)
[1]; [14]
  Average of necrosis: A (A represents a percentage inhibition of 80-100)
[1]; [15]
  Average of necrosis: A (A represents a percentage inhibition of 80-100)
[1]; [16]
  Average of necrosis: A (A represents a percentage inhibition of 80-100)
[1]; [17]
  Average of necrosis: C (C represents a percentage increase in necrosis relative to the control of 0.1-50)
[1]; [18]
  Average of necrosis: C (C represents a percentage increase in necrosis relative to the control of 0.1-50)
[1]; [19]
  Average of necrosis: C (C represents a percentage increase in necrosis relative to the control of 0.1-50)
[1]; [20]
  Average of necrosis: B (B represents a percentage inhibition of 50-80)
[1]; [21]
  Average of necrosis: B (B represents a percentage inhibition of 50-80)
[1]; [22]
  Average of necrosis: B (B represents a percentage inhibition of 50-80)
[1]; [23]
  Average of necrosis: A (A represents a percentage inhibition of 80-100)
[1]; [24]
  Average of necrosis: C (C represents a percentage increase in necrosis relative to the control of 0.1-50)
[1]; [25]
  Average of necrosis: C (C represents a percentage increase in necrosis relative to the control of 0.1-50)
[1]; [26]
  Average of necrosis: C (C represents a percentage increase in necrosis relative to the control of 0.1-50)
[1]; [27]
  Average of necrosis: B (B represents a percentage inhibition of 50-80)
[1]; [28]
  Average of necrosis: A (A represents a percentage inhibition of 80-100)
[1]; [29]
  Average of necrosis: A (A represents a percentage inhibition of 80-100)
[1]; [30]
  Average of necrosis: A (A represents a percentage inhibition of 80-100)
[1]; [31]
  Average of necrosis: C (C represents a percentage increase in necrosis relative to the control of 0.1-50)
[1]; [32]
  Average of necrosis: C (C represents a percentage increase in necrosis relative to the control of 0.1-50)
[1]; [33]
  Average of necrosis: C (C represents a percentage increase in necrosis relative to the control of 0.1-50)
[1]; [34]
  Average of necrosis: B (B represents a percentage inhibition of 50-80)
[1]; 200 g/ha, day 5 post application
  Average of necrosis: A (A represents a percentage inhibition of 80-100)
[1]; 200 g/ha, day 7 post application
  Average of necrosis: A (A represents a percentage inhibition of 80-100)
[1]; 200 g/ha, day 10 post application
  Average of necrosis: A (A represents a percentage inhibition of 80-100)
[2]; [3]
  Average of necrosis: C (C represents a percentage increase in necrosis relative to the control of 0.1-50)
[2]; [4]
  Average of necrosis: C (C represents a percentage increase in necrosis relative to the control of 0.1-50)
[2]; [5]
  Average of necrosis: C (C represents a percentage increase in necrosis relative to the control of 0.1-50)
[2]; [6]
  Average of necrosis: C (C represents a percentage increase in necrosis relative to the control of 0.1-50)
[2]; [7]
  Average of necrosis: C (C represents a percentage increase in necrosis relative to the control of 0.1-50)
[2]; [8]
  Average of necrosis: C (C represents a percentage increase in necrosis relative to the control of 0.1-50)
[2]; [9]
  Average of necrosis: B (B represents a percentage inhibition of 50-80)
[2]; [10]
  Average of necrosis: C (C represents a percentage increase in necrosis relative to the control of 0.1-50)
[2]; [11]
  Average of necrosis: C (C represents a percentage increase in necrosis relative to the control of 0.1-50)
[2]; [12]
  Average of necrosis: C (C represents a percentage increase in necrosis relative to the control of 0.1-50)
[2]; [13]
  Average of necrosis: C (C represents a percentage increase in necrosis relative to the control of 0.1-50)
[2]; [14]
  Average of necrosis: C (C represents a percentage increase in necrosis relative to the control of 0.1-50)
[2]; [15]
  Average of necrosis: C (C represents a percentage increase in necrosis relative to the control of 0.1-50)
[2]; [16]
  Average of necrosis: A (A represents a percentage inhibition of 80-100)
[2]; [17]
  Average of necrosis: C (C represents a percentage increase in necrosis relative to the control of 0.1-50)
[2]; [18]
  Average of necrosis: C (C represents a percentage increase in necrosis relative to the control of 0.1-50)
[2]; [19]
  Average of necrosis: C (C represents a percentage increase in necrosis relative to the control of 0.1-50)
[2]; [20]
  Average of necrosis: C (C represents a percentage increase in necrosis relative to the control of 0.1-50)
[2]; [21]
  Average of necrosis: B (B represents a percentage inhibition of 50-80)
[2]; [22]
  Average of necrosis: B (B represents a percentage inhibition of 50-80)
[2]; [23]
  Average of necrosis: B (B represents a percentage inhibition of 50-80)
[2]; [24]
  Average of necrosis: C (C represents a percentage increase in necrosis relative to the control of 0.1-50)
[2]; [25]
  Average of necrosis: C (C represents a percentage increase in necrosis relative to the control of 0.1-50)
[2]; [26]
  Average of necrosis: C (C represents a percentage increase in necrosis relative to the control of 0.1-50)
[2]; [27]
  Average of necrosis: C (C represents a percentage increase in necrosis relative to the control of 0.1-50)
[2]; [28]
  Average of necrosis: B (B represents a percentage inhibition of 50-80)
[2]; [29]
  Average of necrosis: B (B represents a percentage inhibition of 50-80)
[2]; [30]
  Average of necrosis: B (B represents a percentage inhibition of 50-80)
[2]; [31]
  Average of necrosis: C (C represents a percentage increase in necrosis relative to the control of 0.1-50)
[2]; [32]
  Average of necrosis: C (C represents a percentage increase in necrosis relative to the control of 0.1-50)
[2]; [33]
  Average of necrosis: C (C represents a percentage increase in necrosis relative to the control of 0.1-50)
[2]; [34]
  Average of necrosis: C (C represents a percentage increase in necrosis relative to the control of 0.1-50)
